In patent publication US20110230659A1, “CYCLOBUTYL PURINE DERIVATIVE, ANGIOGENESIS PROMOTING AGENT, LUMEN FORMATION PROMOTING AGENT, NEUROCYTE GROWTH PROMOTING AGENT, AND DRUG” (NATIONAL UNIVERSITY CORPORATION KAGAWA UNIVERSITY, priority 2008, published 2011):

Experiments:
[1] = system: Human umbilical vein endothelial cells (HUVEC); assay: Measurement of cell migration (CytoSelect 24-well Cell Migration Assay); assay type: cell-based; settings: examined in the same manner as in Example 1
Method: Measurement of cell migration was carried out in the following manner using CytoSelect 24-well Cell Migration Assay (CBA-100, Cell Biolabs) kits. First, sample solutions were prepared by dissolving 2-Cl—C.OXT-A in physiological saline so as to achieve predetermined concentrations (0.1, 0.5, 1 mmol/l). Then, the sample solutions containing 2-Cl—C.OXT-A at the predetermined concentrations respectively were added to HuMedia-EB2 media (Kurabo) to which 2 v/v % inactivated fetal bovine serum (FBS) had been added so that their concentrations became 10 v/v %. Thus, cell migration media were prepared. The final concentrations of 2-Cl—C.OXT-A in the cell migration media were 10, 50, and 100 μmol/l.
Human umbilical vein endothelial cells (HUVEC) were suspended in a HuMedia-EB2 medium (Kurabo) to which 2 v/v % inactivated fetal bovine serum (FBS) had been added at a density of 0.5×10^6 cells/ml. Thus, a cell suspension was prepared. 300 μl of the cell suspension was added to an upper compartment (i.e., in an insert) of a polycarbonate membrane plate provided in the kit, and 500 μl of the cell migration medium was added to a lower compartment (i.e., in a well) of the plate. Then, the cells were cultured at 37° C. for 24 hours. After the completion of the culture, the membrane on the inner bottom face of the insert was wiped out with a cotton swab to remove the cells on the membrane. Then, cells having migrated to the rear face of the membrane (the membrane on the outer bottom face of the insert) were stained using a staining solution provided in the kit, and then photographed from below the insert. After the photographing, the dye was extracted with an extracting solution provided in the kit, and the absorbance at 560 nm was measured using a microplate reader. As a control, a HuMedia-EB2 medium (Kurabo) to which 2 v/v % inactivated fetal bovine serum (FBS) had been added was used instead of the cell migration medium to carry out the culture, and the cells were stained and the absorbance was measured in the same manner as in the above. Then, using the above equation (I), the relative absorbance in the culture using each of the cell migration media containing 2-Cl—C.OXT-A at the predetermined concentrations was calculated.

[2] = system: human umbilical vein endothelial cells (HUVEC) and normal human dermal fibroblasts; assay: Measurement of lumen formation (angiogenesis kit, CD31 immunostaining, lumen area); assay type: cell-based
Method: The measurement of lumen formation was carried out in the following manner using commercially available angiogenesis kits (Kurabo), each including human umbilical vein endothelial cells (HUVEC) and normal human dermal fibroblasts. First, sample solutions were prepared by dissolving 2-Cl—C.OXT-A in physiological saline so as to achieve predetermined concentrations (1, 10, 100, 500 μmol/l, 1, 5, 10, 50 mmol/l). Then, the sample solutions containing 2-Cl—C.OXT-A at the predetermined concentrations respectively were added to media provided in the kits so that their concentrations became 10 v/v %. Thus, lumen formation media were prepared. The final concentrations of 2-Cl—C.OXT-A in the lumen formation media were 0.1, 1, 10, 50, 100, 500 μmol/l, 1 and 5 mmol/1.
Using each of the lumen formation media, the human umbilical vein endothelial cells (HUVEC) and the normal human dermal fibroblasts were cultured for 10 days. After the culture, the human umbilical vein endothelial cells (HUVEC) were immunostained using a lumen staining kit (for CD31 staining, Kurabo). Then, using NIH Image (image processing and analysis software), the area of a portion stained by the immunostaining (lumen area) was measured. As a control, a medium provided in the kit was used instead of the lumen formation medium to carry out the culture, and the cells were immunostained and the lumen area was measured in the same manner as in the above. Then, using the following equation (II), the relative value of lumen area in the culture using each of the lumen formation media containing 2-Cl—C.OXT-A at the predetermined concentrations was calculated.
In the present example, the relative value of lumen area was calculated in the same manner as in the lumen formation measurement in Example 1, except that the measurement was carried out with respect to four groups respectively using media Nos. 5 to 8 prepared by adding 2-Cl—C.OXT-A and PD98059 to media provided in the above-described angiogenesis kits (Kurabo) so that their concentrations became as shown in Table 2 below. In the group using the medium No. 7, the culture was conducted using the medium No. 7 from the first to third days of the culture and the medium No. 5 from the fourth to tenth days of the culture, and in the group using the medium No. 8, the culture was conducted using the medium No. 8 from the first to third days of the culture and the medium No. 6 from the fourth to tenth days of the culture.
In the present example, the relative value of lumen area was calculated in the same manner as in the lumen formation measurement in Example 1, except that the measurement was carried out with respect to six groups respectively using media Nos. 15 to 20 prepared by adding 2-Cl—C.OXT-A, VEGF (positive control), and SU5416 to media provided in the above-described angiogenesis kit (Kurabo) so that their concentrations became as shown in Table 4 below. In the group using the medium No. 16, the culture was conducted using the medium No. 16 from the first to third days of the culture and the medium No. 15 from the fourth to tenth days of the culture; in the group using the medium No. 18, the culture was conducted using the medium No. 18 from the first to third days of the culture and the medium No. 17 from the fourth to tenth days of the culture; and in the group using the medium No. 20, the culture was conducted using the medium No. 20 from the first to third days of the culture and the medium No. 19 from the fourth to tenth days of the culture.

[3] = system: Human umbilical vein endothelial cells (HUVEC); assay: Measurement of cell proliferation (Cell Counting Kit-8); assay type: cell-based; settings: examined in the same manner as in Example 1
Method: Sample solutions were prepared by dissolving 2-Cl—C.OXT-A in physiological saline so as to achieve predetermined concentrations (0.5, 1, 5, 10, 50, 100 mmol/l). Then, the sample solutions containing 2-Cl—C.OXT-A at the predetermined concentrations respectively were added to HuMedia-EB2 media (Kurabo) to which 2 v/v % inactivated fetal bovine serum (FBS) had been added so that their concentrations became 10 v/v %. Thus, cell proliferation media were prepared. The final concentrations of 2-Cl—C.OXT-A in the cell proliferation media were 50, 100, 500 μmol/l, 1, 5, and 10 mmol/1.
Human umbilical vein endothelial cells (HUVEC) suspended in a HuMedia-EG2 medium (Kurabo) were inoculated into each of gelatin-coated wells of a 96-well plate at a density of 3×10^3 cells per well, and cultured for 24 hours. 24 hours after the start of the culture, the medium was removed, and 100 μl of the cell proliferation medium was added to each well. The cells were cultured for another 48 hours. After the completion of the culture, a color reaction was caused using a Cell Counting Kit-8 (Dojindo Laboratories). 2 hours after the start of the reaction, the absorbance at 450 nm was measured using a microplate reader. As a control, a HuMedia-EB2 medium (Kurabo) to which 2 v/v % inactivated fetal bovine serum (FBS) had been added was used instead of the cell proliferation medium to carry out the culture, and a color reaction was caused and the absorbance was measured in the same manner as in the above. Then, using the following equation (I), the relative absorbance in the culture using each of the cell proliferation media containing 2-Cl—C.OXT-A at the predetermined concentrations was calculated.

ERK = ERK activation (phosphorylation) immunoblot in HUVEC; assay type: cell-based, human
[4] = system: rat adrenal medulla-derived cell line PC12; assay: Differentiation of PC12 cells, morphological change (micrographs); assay type: cell-based; settings: medium containing NGF (positive control); sixth day of culture
Method: In the present example, using rat adrenal medulla-derived cell line PC12, which is neurocyte model cells, obtained from the RIKEN BioResource Center, the effect of 2-Cl—C.OXT-A of Example 1 on the differentiation of PC12 cells was examined.
(§1) Three samples were prepared by adding additives shown in Table 5 below to PBS so as to achieve predetermined concentrations. Also, an evaluation medium was prepared by adding each sample or PBS to DMEM (no serum) so that its concentration became 10 v/v %. Furthermore, as a control medium, a medium containing only DMEM (no serum) was prepared. […] On the sixth day of the culture, the cells were photographed under a microscope, and the AChE activity was measured according to the Ellman's method (Ellman, G. L., et al., Biochem. Pharmacol., 7, pp. 88-95, (1961)). Specifically, the AChE activity was measured in the following manner. […] The sample solution, 75 μl of 10 mmol/l DTNB, and 3.0 ml of 0.1 mol/l phosphate buffer solution (pH 8.0) were added to a […] for absorbance measurement, and finally, 50 μl of 100 mmol/l acetylthiocholine was added to cause a reaction. The absorbance of the reaction solution at 412 nm was measured for 5 minutes from immediately after the addition of the ace tylthiocholine. From the thus-measured absorbances, the amount of increase in absorbance (C) per minute was determined. […]

[5] = system: rat adrenal medulla-derived cell line PC12; assay: Differentiation of PC12 cells, AChE activity (Ellman's method); assay type: cell-based; settings: NGF (positive control), sixth day of culture
Method: as §1, with “prepared. The PC12 cells were suspended at a density of 5×10^4 cells/ml in DMEM to which 5 v/v % cow serum and 10 v/v % horse serum had been added. Thus, a cell suspension was prepared. 3 ml of the cell suspension was inoculated into a 6 petri dish.” for “prepared.”

CSc1nc(N)c2ncn(C3CC(CO)C3CO)c2n1 (stereo not drawn) [2-SMe—C.OXT-A, 6-amino-2-thiomethoxy-9-[trans-trans-2,3-bis (hydroxymethyl)cyclobutyl]purine]
cell migration promoting-activity for vascular endothelial cells [1]: exhibited
melting point: 209.4 to 211 °C
lumen formation promoting-activity for vascular endothelial cells ([2]; examined in the same manner as in Example 1): exhibited
cell proliferation promoting-activity for vascular endothelial cells [3]: exhibited

Cc1cc(C)c(/C=C2\C(=O)Nc3ccccc32)[nH]1 [SU5416, reference compound]
increase in pERK (ERK; Example 8, medium No. 10: only SU5416 100 nmol/l): not observed
ERK activation by 2-Cl—C.OXT-A in the presence of SU5416 (ERK; Example 8, medium No. 12: 2-Cl—C.OXT-A 100 μmol/l + SU5416 100 nmol/l): not inhibited
increase in pERK by VEGF in the presence of SU5416 (ERK; Example 8, medium No. 14: VEGF 10 ng/ml + SU5416 100 nmol/l): suppressed
lumen formation ([2]; Example 9, medium No. 16: only SU5416 2.5 μmol/l, versus medium No. 15 (control)): decreased
lumen formation promotion by 2-Cl—C.OXT-A in the presence of SU5416 ([2]; Example 9, medium No. 18: 2-Cl—C.OXT-A 10 μmol/l + SU5416 2.5 μmol/l, lumen area increased, rate lower than medium No. 17): not inhibited
lumen area ([2]; Example 9, medium No. 20: VEGF 10 ng/ml + SU5416 2.5 μmol/l): decreased

NGF: nerve growth factor, positive control
morphological change of PC12 cells (axon extension) [4]: cells from which linear axons extend were observed
AChE enzyme activity (relative value) [5]: increased

VEGF
pERK (ERK; Example 8, medium No. 13: VEGF 10 ng/ml): increased
lumen area ([2]; Example 9, medium No. 19: VEGF 10 ng/ml): increased
